Results published in USRE42890E1, “Furazanobenzimidazoles” (Basilea Pharmaceutica AG, priority 2003, dated 2011).
Like-named read-outs stand apart in the source and are kept apart here.

Assays:
HeLa = assay: MTS proliferation assay, HeLa; type: cell-based, human; details: 72 h incubation, read-out: MTS proliferation assay IC 50 HeLa
Outline: (§1)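 Absorbance at 492 nm after 3 h with MTS reagent gave proliferation. This followed 72 h compound exposure (final 0.3, 1, 3, 10 μM) at 37 °C and 7.5% CO2. Cells had been plated 24 h earlier in complete RPMI-1640 with 5% or 10% FCS.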

HT1080 = assay: MTS proliferation assay, HT1080; type: cell-based, human; details: HT1080, 72 h incubation, read-out: MTS proliferation assay IC 50 HT1080
Outline: as §1

MRC5 = assay: MTS proliferation assay, MRC5; type: cell-based; details: MRC5, 72 h incubation, read-out: MTS proliferation assay IC 50 MRC5
Outline: (§2)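 Antiproliferative read-out by MTS (3 h, A492) after 72 h compound exposure at final 0.3–10 μM (four concentrations). Cells were plated 24 h earlier in RPMI-1640 containing 5% or 10% FCS, cultured at 37 °C with 7.5% CO2.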

Jurkat = assay: MTS proliferation assay, Jurkat; type: cell-based, human; details: 72 h incubation, read-out: MTS proliferation assay IC 50 Jurkat
Outline: as §1

Jily = assay: MTS proliferation assay, Jily; type: cell-based; details: 72 h incubation, read-out: MTS proliferation assay IC 50 Jily
Outline: as §2

[1] = test system: adherent cells or suspension cells; assay: Hoechst 33342 nuclear staining (fraction of apoptotic nuclei); type: cell-based; set-up: key: 0 relating to no activity; 1 relating to weak activity comprising less than 70% of the cells; score 2 relating to strong activity comprising more than 70% of the cells

SMILES	IC50 (Jily) [nM]	Hoechst 33342 nuclear staining score ([1]; H460, conc 0.01 μm)	Hoechst 33342 nuclear staining score ([1]; H460, conc 0.1 μm)	Hoechst 33342 nuclear staining score ([1]; H460, conc 1 μm)	Hoechst 33342 nuclear staining score ([1]; HeLa, conc 0.01 μm)	Hoechst 33342 nuclear staining score ([1]; HeLa, conc 0.1 μm)	Hoechst 33342 nuclear staining score ([1]; HeLa, conc 1 μm)	Hoechst 33342 nuclear staining score ([1]; Jily, conc 0.01 μm)	Hoechst 33342 nuclear staining score ([1]; Jily, conc 0.1 μm)	Hoechst 33342 nuclear staining score ([1]; Jily, conc 1 μm)	Hoechst 33342 nuclear staining score ([1]; Jurkat, conc 0.01 μm)	Hoechst 33342 nuclear staining score ([1]; Jurkat, conc 0.1 μm)	Hoechst 33342 nuclear staining score ([1]; Jurkat, conc 1 μm)	Hoechst 33342 nuclear staining score ([1]; MRC5, conc 0.01 μm)	Hoechst 33342 nuclear staining score ([1]; MRC5, conc 0.1 μm)	Hoechst 33342 nuclear staining score ([1]; MRC5, conc 1 μm)	Hoechst 33342 nuclear staining score ([1]; PBLs, conc 0.01 μm)	Hoechst 33342 nuclear staining score ([1]; PBLs, conc 0.1 μm)	Hoechst 33342 nuclear staining score ([1]; PBLs, conc 1 μm)	IC50 (HeLa) [nM]	other results
COC(=O)CCNc1nonc1-c1nc2ccccc2n1CC(=O)c1ccc(Cl)cc1 [Example 9, 4-[1-(4-Chlorophenacyl)-1H-benzimidazol-2-yl]-furazan-3-yl-N-(2-methoxycarbonylethyl)-amine]	100 to 1000	0	0	0	0	0	2 (score 2 relating to strong activity comprising more than 70% of the cells)	0	0	2 (score 2 relating to strong activity comprising more than 70% of the cells)	0	0	2 (score 2 relating to strong activity comprising more than 70% of the cells)	0	0	2 (score 2 relating to strong activity comprising more than 70% of the cells)	0	0	2 (score 2 relating to strong activity comprising more than 70% of the cells)	–	IC50 (HeLa; Homo sapiens): 100 to 1000 nM; IC50 (HT1080; Homo sapiens, HT-1080): 100 to 1000 nM; IC50 (MRC5; Homo sapiens): 100 to 1000 nM; IC50 (Jurkat; Homo sapiens): 100 to 1000 nM
COc1cc(C(=O)Cn2c(-c3nonc3N)nc3ccccc32)ccc1O [Example 74, 4-[1-(3-Methoxy-4-hydroxyphenacyl)-1H-benzimidazol-2-yl]-furazan-3-yl-amine]	100 to 1000	0	0	2 (score 2 relating to strong activity comprising more than 70% of the cells)	0	0	2 (score 2 relating to strong activity comprising more than 70% of the cells)	0	0	2 (score 2 relating to strong activity comprising more than 70% of the cells)	0	0	2 (score 2 relating to strong activity comprising more than 70% of the cells)	0	0	1 (1 relating to weak activity comprising less than 70% of the cells)	0	0	0	–	IC50 (HeLa; Homo sapiens): 100 to 1000 nM; IC50 (HT1080; Homo sapiens, HT-1080): 100 to 1000 nM; IC50 (MRC5; Homo sapiens): 100 to 1000 nM; IC50 (Jurkat; Homo sapiens): 100 to 1000 nM
Cc1cc2nc(-c3nonc3N)n(CC(=O)c3ccccc3)c2cc1C [Example 108]	100 to 1000	0	0	1 (1 relating to weak activity comprising less than 70% of the cells)	0	0	0	0	0	2 (score 2 relating to strong activity comprising more than 70% of the cells)	0	0	2 (score 2 relating to strong activity comprising more than 70% of the cells)	0	0	0	0	0	0	100 to 1000	IC50 (HT1080): 100 to 1000 nM; IC50 (MRC5): 100 to 1000 nM; IC50 (Jurkat): 100 to 1000 nM
Nc1nonc1-c1nc2ccccc2n1COc1ccc(Cl)cc1 [Example 88]	100 to 1000	–	–	–	0	0	2 (score 2 relating to strong activity comprising more than 70% of the cells)	0	0	1 (1 relating to weak activity comprising less than 70% of the cells)	0	0	2 (score 2 relating to strong activity comprising more than 70% of the cells)	0	0	0	0	0	0	100 to 1000	IC50 (HT1080): 100 to 1000 nM; IC50 (MRC5): 100 to 1000 nM; IC50 (Jurkat): 100 to 1000 nM
Nc1nonc1-c1nc2ccccc2n1COc1ccc(Cl)c(Cl)c1 [Example 92]	10 to 100	0	2 (score 2 relating to strong activity comprising more than 70% of the cells)	2 (score 2 relating to strong activity comprising more than 70% of the cells)	0	2 (score 2 relating to strong activity comprising more than 70% of the cells)	2 (score 2 relating to strong activity comprising more than 70% of the cells)	0	2 (score 2 relating to strong activity comprising more than 70% of the cells)	2 (score 2 relating to strong activity comprising more than 70% of the cells)	0	2 (score 2 relating to strong activity comprising more than 70% of the cells)	2 (score 2 relating to strong activity comprising more than 70% of the cells)	0	2 (score 2 relating to strong activity comprising more than 70% of the cells)	2 (score 2 relating to strong activity comprising more than 70% of the cells)	0	0	0	10 to 100	IC50 (HT1080): 10 to 100 nM; IC50 (MRC5): 100 to 1000 nM; IC50 (Jurkat): 10 to 100 nM
Nc1nonc1-c1nc2ccccc2n1CC(=O)c1ccc2c(c1)OCO2 [Example 45]	10 to 100	0	2 (score 2 relating to strong activity comprising more than 70% of the cells)	2 (score 2 relating to strong activity comprising more than 70% of the cells)	0	1 (1 relating to weak activity comprising less than 70% of the cells)	2 (score 2 relating to strong activity comprising more than 70% of the cells)	0	2 (score 2 relating to strong activity comprising more than 70% of the cells)	2 (score 2 relating to strong activity comprising more than 70% of the cells)	0	2 (score 2 relating to strong activity comprising more than 70% of the cells)	2 (score 2 relating to strong activity comprising more than 70% of the cells)	0	0	2 (score 2 relating to strong activity comprising more than 70% of the cells)	0	0	0	10 to 100	IC50 (HT1080): 10 to 100 nM; IC50 (MRC5): 100 to 1000 nM; IC50 (Jurkat): 10 to 100 nM
